In patent US6936628B2, “Oral administration of epothilones” (Bristol-Myers Squibb Company, priority 2002, dated 2005):
pIC50: −log10 of the molar value.

How the values were obtained:
[1] = Stability of aqueous solution (time for 5% drug loss, t95); assay type: physicochemical; conditions: 37° C.
[2] = Water solubility (statement); assay type: physicochemical
Protocol: For these reasons Compound A may be formulated in an entirely aqueous excipient system for parenteral administration. To determine whether differences in the dosing vehicle may affect the antitumor activity of Compound A, a direct head-to-head comparison of the antitumor efficacy of Compound A formulated in either cremophor/ethanol/water (10:10:80, v/v/v) or sodium acetate buffer (30 mM, pH 5.0) was conducted. No formulation related effect was observed.

HCT116/VM46 cells = experiment: In vitro cytotoxicity assay (MTS), HCT116/VM46; assay type: cell-based, human; conditions: Homo sapiens, HCT-116/VM46; HCT116/VM46 (MDR colon line), 72-hour incubation
[3] = system: tubulin isolated from calf brain; assay type: biochemical
[4] = system: human ovarian carcinoma xenograft A2780; experiment: Antitumor activity by parenteral administration to rats, A2780 xenograft; assay type: in vivo, nude rats
Protocol: The required number of animals needed to detect a meaningful response were pooled at the start of the experiment and each was given a subcutaneous implant of a tumor fragment (≈50 mg) with a 13-gauge trocar. For treatment of early-stage tumors, the animals were again pooled before distribution to the various treatment and control groups. For treatment of animals with advanced-stage disease, tumors were allowed to grow to the pre-determined size window (tumors outside the range were excluded) and animals were evenly distributed to various treatment and control groups. Treatment of each animal was based on individual body weight. Treated animals were checked daily for treatment related toxicity/mortality. Each group of animals was weighed before the initiation of treatment (Wt1) and then again following the last treatment dose (Wt2). The difference in body weight (Wt2−Wt1) provides a measure of treatment-related toxicity.
Tumor response was determined by measurement of tumors with a caliper twice a week, until the tumors reach a predetermined “target” size of 1 gm. Tumor weights (mg) were estimated from the formula: Tumor weight=(length×width^2)÷2
Antitumor activity was evaluated at the maximum tolerated dose (MTD) which is defined as the dose level immediately […] which excessive toxicity (i.e. more than one death) occurred. The MTD was frequently equivalent to OD. When death occurred, the day of death was recorded. Treated mice dying prior to having their tumors reach target size were considered to have died from drug toxicity. No control mice died bearing tumors less than target size. Treatment groups with more than one death caused by drug toxicity were considered to have had excessively toxic treatments and their data were not included in the evaluation of a compound's antitumor efficacy.
Tumor response end-point was expressed in terms of tumor growth delay (T−C value), defined as the difference in time (days) required for the treated tumors (T) to reach a predetermined target size compared to those of the control group (C).
To estimate tumor cell kill, the tumor volume doubling time was first calculated with the formula: TVDT=Median time (days) for control tumors to reach target size−Median time (days) for control tumors to reach half the target size and Log cell kill=T−C÷(3.32×TVDT)
Compound A was evaluated versus the human ovarian carcinoma xenograft A2780 grown in nude rats. […] In comparison, Compound B produced 3.3 LCK at its MTD (2.4 mg/kg/inj, IV, every 8 days×2).

[5] = biological target: T1, HERG (IKr) potassium channel (Homo sapiens, UniProt Q12809); experiment: HERG (IKr current) assay; assay type: cell-based; conditions: 30 μM, HEK293 cells transfected with HERG
T1 construct: expressed in transfected cells; host or cells: HEK293
T1 sequence (Q12809 whole entry): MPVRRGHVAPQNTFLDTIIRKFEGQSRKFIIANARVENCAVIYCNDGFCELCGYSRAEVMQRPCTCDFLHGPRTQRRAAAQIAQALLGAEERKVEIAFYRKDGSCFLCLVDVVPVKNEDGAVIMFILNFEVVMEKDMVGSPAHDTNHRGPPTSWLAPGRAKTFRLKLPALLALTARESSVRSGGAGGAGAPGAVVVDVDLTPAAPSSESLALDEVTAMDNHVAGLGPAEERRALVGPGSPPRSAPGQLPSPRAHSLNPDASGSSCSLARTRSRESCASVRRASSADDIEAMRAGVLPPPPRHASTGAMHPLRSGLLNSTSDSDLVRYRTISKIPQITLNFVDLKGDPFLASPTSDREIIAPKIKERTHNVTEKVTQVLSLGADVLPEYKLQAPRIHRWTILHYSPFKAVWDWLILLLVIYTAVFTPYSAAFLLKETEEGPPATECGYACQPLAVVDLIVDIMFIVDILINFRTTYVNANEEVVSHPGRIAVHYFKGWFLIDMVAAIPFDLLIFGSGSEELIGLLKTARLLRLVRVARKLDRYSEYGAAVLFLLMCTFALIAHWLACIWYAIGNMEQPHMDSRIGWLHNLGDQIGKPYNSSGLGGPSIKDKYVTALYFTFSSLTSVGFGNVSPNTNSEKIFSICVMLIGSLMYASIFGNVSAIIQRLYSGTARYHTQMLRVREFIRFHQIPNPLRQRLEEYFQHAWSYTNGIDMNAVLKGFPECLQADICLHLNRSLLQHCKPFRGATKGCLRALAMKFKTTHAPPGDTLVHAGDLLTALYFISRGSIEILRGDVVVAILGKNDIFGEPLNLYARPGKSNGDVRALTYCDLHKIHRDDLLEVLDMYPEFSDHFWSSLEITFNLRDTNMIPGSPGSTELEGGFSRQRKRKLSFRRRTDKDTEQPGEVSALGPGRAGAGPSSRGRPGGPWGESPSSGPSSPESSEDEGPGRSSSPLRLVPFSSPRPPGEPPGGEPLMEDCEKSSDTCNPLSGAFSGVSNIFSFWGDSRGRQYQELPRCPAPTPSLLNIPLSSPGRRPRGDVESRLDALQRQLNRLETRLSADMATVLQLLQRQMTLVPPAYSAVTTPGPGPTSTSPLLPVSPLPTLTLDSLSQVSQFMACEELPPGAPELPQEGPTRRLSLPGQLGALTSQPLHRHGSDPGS
Protocol: (§1) Human embryonic kidney (HEK293) cells stably transfected with the human ether-a-go-go related gene (HERG) cDNA were utilized in the HERG assay. Rabbit Purkinje fibres were used for the Purkinje-fibre action potential assay^7.
In a non-GLP study^7, Compound A was evaluated for effects on potassium channel current at concentrations of 10 and 30 μM. The human ether-a-go-go related gene (HERG) encodes the rapidly activating delayed-rectifier potassium channel (IKr) in heart. […] Based on the findings, it is unlikely that Compound A would cause IKr-mediated increases in the QT interval at anticipated therapeutic plasma concentrations.

rabbit Purkinje fiber = experiment: Rabbit Purkinje-fiber action potential model; assay type: cell-based; conditions: 30 μM
Protocol: as §1
In a non-GLP study^7, Compound A, at concentrations of 3, 10 and 30 μM, was evaluated in an in vitro rabbit Purkinje fiber model. This model was developed to determine if a compound would affect the action-potential duration of the Purkinje fiber or other action-potential parameters. […] Based on these findings, Compound A is unlikely to provoke clinically relevant electrocardiographic effects in vivo.

in vivo [6] = conditions: Balb/c nu/nu, mouse, po
in vivo [7] = conditions: male, Sprague-Dawley, rat, plasma, other: intraarterial (IA), 2 mg/kg
Protocol: In another pharmacokinetic study, fasted male Sprague-Dawley rats, assigned to two IA groups (2 mg/kg) and one oral (8 mg/kg) group (n=3/group), were administered a single dose of Compound A. Compound A was prepared for IA administration in two separate vehicles: vehicle 1, cremophor:ethanol:water (10:10:80), and vehicle 2, ethanol:phosphate buffer, 0.05 M, pH 7.4 (6:94). The vehicle for the oral administration was ethanol:phosphate buffer, 0.3 M, pH 8 (18:82). Samples were collected at 10, 15, 30, and 45 min, and at 1, 2, 4, 6, 8, 10, 24, and 48 hours after dosing.

human CYP2C19 = human CYP2C19 (Homo sapiens, UniProt P33261); experiment: biochemical
Sequence of human CYP2C19 (P33261 whole entry): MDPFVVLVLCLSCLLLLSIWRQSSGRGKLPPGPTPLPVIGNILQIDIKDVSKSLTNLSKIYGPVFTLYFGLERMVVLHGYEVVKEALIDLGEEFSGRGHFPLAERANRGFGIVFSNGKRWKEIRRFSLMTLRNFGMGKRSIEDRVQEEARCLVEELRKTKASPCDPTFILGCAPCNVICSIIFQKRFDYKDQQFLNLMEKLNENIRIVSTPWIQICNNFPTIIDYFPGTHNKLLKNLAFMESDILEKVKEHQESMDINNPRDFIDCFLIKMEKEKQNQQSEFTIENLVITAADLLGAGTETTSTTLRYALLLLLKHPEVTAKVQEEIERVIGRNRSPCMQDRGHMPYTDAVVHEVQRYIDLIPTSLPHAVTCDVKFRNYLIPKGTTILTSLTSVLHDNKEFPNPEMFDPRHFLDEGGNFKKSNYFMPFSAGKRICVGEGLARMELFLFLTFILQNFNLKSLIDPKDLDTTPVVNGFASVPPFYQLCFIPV

CYP2C9 = CYP2C9 (Homo sapiens, UniProt P11712); experiment: biochemical
Sequence of CYP2C9 (P11712 whole entry): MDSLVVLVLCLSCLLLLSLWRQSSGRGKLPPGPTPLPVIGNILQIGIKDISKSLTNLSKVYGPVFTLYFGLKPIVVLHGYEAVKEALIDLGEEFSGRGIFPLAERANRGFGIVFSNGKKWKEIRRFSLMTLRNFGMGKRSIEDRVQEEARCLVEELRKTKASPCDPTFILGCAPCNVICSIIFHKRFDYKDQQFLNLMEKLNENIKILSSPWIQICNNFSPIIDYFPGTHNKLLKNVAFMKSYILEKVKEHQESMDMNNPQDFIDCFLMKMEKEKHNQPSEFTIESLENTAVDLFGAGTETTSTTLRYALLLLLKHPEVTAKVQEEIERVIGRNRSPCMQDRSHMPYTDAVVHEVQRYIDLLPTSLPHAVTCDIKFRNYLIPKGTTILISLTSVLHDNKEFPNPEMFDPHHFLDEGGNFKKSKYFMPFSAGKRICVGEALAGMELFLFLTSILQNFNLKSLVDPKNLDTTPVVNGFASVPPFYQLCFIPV

Liver S9 incubation, rat = conditions: rat liver S9, 20 μM
[8] = Liver S9 incubation, mouse; conditions: mouse liver S9, 20 μM
[9] = Microsomal incubation, human; conditions: human liver microsomes + NADPH, 20 μM
CYP3A4 = CYP3A4 (Homo sapiens, UniProt P08684); experiment: Inhibition of human CYP enzymes, CYP3A4
Sequence of CYP3A4 (P08684 whole entry): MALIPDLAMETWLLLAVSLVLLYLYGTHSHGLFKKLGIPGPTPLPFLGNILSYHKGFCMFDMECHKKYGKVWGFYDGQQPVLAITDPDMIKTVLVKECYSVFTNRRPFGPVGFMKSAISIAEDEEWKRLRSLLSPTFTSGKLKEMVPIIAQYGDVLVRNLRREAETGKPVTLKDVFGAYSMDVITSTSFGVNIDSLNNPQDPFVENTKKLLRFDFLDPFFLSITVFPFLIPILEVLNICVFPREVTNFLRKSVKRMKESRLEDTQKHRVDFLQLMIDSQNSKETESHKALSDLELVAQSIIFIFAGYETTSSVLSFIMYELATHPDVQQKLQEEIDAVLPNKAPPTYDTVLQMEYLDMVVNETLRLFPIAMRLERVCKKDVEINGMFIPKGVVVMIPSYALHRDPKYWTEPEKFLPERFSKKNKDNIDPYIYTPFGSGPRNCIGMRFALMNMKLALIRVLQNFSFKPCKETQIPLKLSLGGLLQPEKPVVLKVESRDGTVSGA

In the case of C/C(=C\c1csc(CN)n1)[C@@H]1C[C@@H]2O[C@]2(C)CCC[C@H](C)[C@H](O)[C@@H](C)C(=O)C(C)(C)[C@@H](O)CC(=O)O1 (relative stereo) [Compound A, [1S-[1R*,3R*(E),7R*,10S*,11R*,12R*,16S*]]-3-[2-[2-(aminomethyl)-4-thiazolyl]-1-methylethenyl]-7,11-dihydroxy-8,8,10,12,16-pentamethyl-4,17-dioxabicyclo[14.1.0]heptadecane-5,9-dione], the “time for 5% drug loss (t95)” value ([1]; pH 2.5) was < 0.2 h, the “time for 5% drug loss (t95)” value ([1]; pH 7) was “approximately 14 h” and the water solubility [2] was “highly water-soluble”. The pIC50 (HCT116/VM46 cells) was 7.92, the “Polymerization Potency, EC0.01” value [3] was 7.4 µM and the “Ratio of Polymerization Potency of Analog/Paclitaxel” value [3] was 1.7. The LCK ([4]; A2780 in nude rats, IV, every 8 days×2, at MTD) was 0.7, the MTD ([4]; nude rats bearing A2780, IV, every 8 days×2) was 3 mg/kg/inj and the “maximum inhibition of IKr current” value [5] was 13.5%. The “decrease of Purkinje fiber APD90” value (rabbit Purkinje fiber) was “less than 10%”, the MTD (in vivo [6]) was 90 mg/kg and the AUC (in vivo [7]) was 2890 ng·h/mL. It also gave an AUC (in vivo [7]; pH 7.4) of 717 ng·h/mL, a pIC50 (human CYP2C19) of 5.62 and a pIC50 (CYP2C9) of 4.97. For the same molecule, the “rate of oxidative metabolism” value (Liver S9 incubation, rat) was 0.04, the “rate of oxidative metabolism” value [8] was 0.06 and the “rate of oxidative metabolism” value [9] was 0.21 mmol/min/mg protein. It also gave a pIC50 (CYP3A4) of 5.15.
